Source: patent US9233961B2, “Compounds and compositions for the treatment of parasitic diseases” (Novartis AG, priority 2013, dated 2016)

Tests used:
[1] = test system: Trypanosoma brucei Lister 427 strain bloodstream form; experiment: Assay for proliferation of kinetoplastid parasite Trypanosoma brucei; type: cell-based; conditions: Lister 427 bloodstream form, 48 hours, read-out: T. brucei EC50
Description: Assay for Proliferation of Kinetoplastid Parasite Trypanosoma brucei.
The proliferation is quantified by the addition of Cell Titer Glo (Promega®) a luminescent cell viability assay that measures the number of viable cells in culture based on the quantification of cellular ATP amount, which is an indicator of metabolically active cells.
The following assay illustrates the invention without in any way limiting the scope of the invention. This parasite proliferation assay measures the increase in parasite growth using an assay that measures ATP activity, Cell Titer Glo®.
Trypanosoma brucei Lister 427 strain is grown in HMI-9 Trypanosome media for T. brucei bloodstream form. 30 μl of HMI-9 media is dispensed into 384 well assay plates. 200 nl of compounds of the invention (in DMSO), including anti-trypanosome controls (Pentamidine and suramin), are then transferred into the assay plates, as well as DMSO alone to serve as a negative control for inhibition. Then 25 μl of a suspension of T. brucei culture in HMI-9 media is dispensed into the assay plates. The final concentration of parasites in culture corresponds to 1.7% of 0.5 uM ATP activity with Cell Titer Glo® in HMI-9 media. The plates are placed in a 37° C. incubator for 48 hours in an atmospheric environment containing 5% CO2. 40 μl of Cell Titer Glo® is dispensed into the plates. The plates are then read for luminescence. The percentage inhibition of 50%, EC50, is calculated for each compound.

[2] = test system: Leishmania donovani axenic amastigote parasites; experiment: Leishmania donovani axenic amastigote proliferation assay; type: cell-based; conditions: axenic amastigotes in vitro, read-out: L. donovani amastigotes EC50
Method in brief: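 L. donovani axenic amastigotes (9600/well) in RPMI 1640 with 20% heat-inactivated FBS, folic acid, adenosine, glucose and 25 mM MES, pH 5.5, were incubated with compounds for 2 days at 37 °C, 5% CO2. Viability read by CellTiter-Glo luminescence; EC50 calculated.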

[3] = test system: L. donovani HU3 strain in mouse peritoneal macrophages; experiment: Assay for proliferation of Leishmania parasites in mouse peritoneal macrophages; type: cell-based, Leishmania donovani; conditions: Leishmania donovani, Peritoneal macrophage, read-out: L. donavani Macrophage EC50
Method in brief: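 BALB/c peritoneal macrophages infected 24 h with L. donovani HU3 amastigotes taken from spleens of mice infected 9–11 weeks, then treated with compound for 5 days at 37° C, 5% CO2. Parasite nuclei counted by SYBR Green imaging after fixation; EC50 from percentage inhibition.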

| Compound | EC50 [1] [nM] | EC50 [2] [µM] | EC50 [3] [µM] |
| --- | --- | --- | --- |
| O=C(Nc1ccc(Cl)c(-c2nc3ncc(-c4ccc(OCCN5CCOCC5)nc4)cc3[nH]2)c1)c1ccco1 [Compound 11] | 6.4 | 0.55 | 0.46 |
| N#Cc1ccc(-c2cnc3nc(-c4cc(NC(=O)c5ccco5)ccc4Cl)[nH]c3c2)cc1 [Compound 20] | 54 | 0.239 | 1.78 |
| O=C(Nc1ccc(Cl)c(-c2nc3ncc(-c4ccc(OCCN5CCCCC5)cc4)cc3[nH]2)c1)c1ccco1 [Compound 21] | 63 | 16 | 2.8 |
| COc1cc(-c2cnc3nc(-c4cc(NC(=O)c5ccco5)ccc4Cl)[nH]c3c2)ccc1NC(=O)OC(C)(C)C [Compound 34] | 105 | 0.6 | 1.79 |
| O=C(Nc1ccc(Cl)c(-c2nc3ncc(-c4ccc(OCC5CC5)cc4)cc3[nH]2)c1)c1ccco1 [Compound 36] | 188 | 1.03 | 2.27 |
| O=C1Cc2cc(-c3cnc4nc(-c5cc(NC(=O)c6ccco6)ccc5Cl)[nH]c4c3)ccc2N1 [Compound 43] | 21.6 | 0.73 | 6.9 |
| CS(=O)(=O)c1ccc(-c2cnc3nc(-c4cc(NC(=O)c5ccco5)ccc4Cl)[nH]c3c2)cc1 [Compound 46] | 37 | 0.5 | 1.33 |
| COc1ccc(-c2cnc3nc(-c4cc(NC(=O)c5ccco5)ccc4Cl)[nH]c3c2)cc1Cl [Compound 48] | 76 | 0.53 | 8 |
| COc1ccc(-c2cnc3nc(-c4cc(NC(=O)c5ccco5)ccc4Cl)[nH]c3c2)cc1S(=O)(=O)N1CCCC1 [Compound 49] | 6.7 | 0.44 | 1.05 |
| O=C(Nc1ccc(Cl)c(-c2nc3ncc(-c4ccnc(F)c4)cc3[nH]2)c1)c1ccco1 [Compound 51] | 19.3 | 0.175 | 0.56 |
| CN1CCc2cc(-c3cnc4nc(-c5cc(NC(=O)c6ccco6)ccc5Cl)[nH]c4c3)ccc21 [Compound 59] | 143 | 1.34 | 3.7 |
| COc1ccc(-c2cnc3nc(-c4cc(NC(=O)c5ccco5)ccc4Cl)[nH]c3c2)c(OC)n1 [Compound 61] | 182 | 1.13 | 3.2 |
| CC(C)N1CCN(c2ccc(-c3cnc4nc(-c5cc(NC(=O)c6ccco6)ccc5Cl)[nH]c4c3)cc2)CC1 [Compound 62] | 520 | 19.2 | 9.4 |
| CN(C)CCOc1ccc(-c2cnc3nc(-c4cc(NC(=O)c5ccco5)ccc4Cl)[nH]c3c2)cc1 [Compound 69] | 100 | 18.1 | 2.74 |
| CN1CCOc2cc(-c3cnc4nc(-c5cc(NC(=O)c6ccco6)ccc5Cl)[nH]c4c3)ccc21 [Compound 72] | 73 | 0.67 | 3.2 |
| Cc1cnc2nc(-c3cc(NC(=O)c4cc(C)on4)ccc3Cl)[nH]c2c1 [Compound 79] | 12500 | > 25 | > 50 |
| Cc1cnc2nc(-c3cc(NC(=O)c4nc(C)cs4)ccc3Cl)[nH]c2c1 [Compound 80] | 610 | 5.9 | 18.5 |
| Cc1cnc2nc(-c3cc(NC(=O)C(C)(C)c4ccc(Cl)cc4)ccc3Cl)[nH]c2c1 [Compound 81] | 10800 | > 25 | 16.9 |
| Cc1cnc2nc(-c3cc(NC(=O)Cc4ccc(N(C)C)cc4)ccc3Cl)[nH]c2c1 [Compound 82] | > 14100 | > 25 | > 38.5 |
| Cc1cnc2nc(-c3cc(NC(=O)Cc4c(F)cccc4F)ccc3Cl)[nH]c2c1 [Compound 87] | > 6900 | > 25 | 24.4 |
| Cc1cnc2nc(-c3cc(NC(=O)c4ncc[nH]4)ccc3Cl)[nH]c2c1 [Compound 95] | > 14400 | > 25 | > 50 |
| Cc1cnc2nc(-c3cc(NC(=O)Cc4ccc(C(F)(F)F)cc4)ccc3Cl)[nH]c2c1 [Compound 96] | 8900 | > 25 | 20.7 |
| Cc1cnc2nc(-c3cc(NC(=O)Cc4cccnc4)ccc3Cl)[nH]c2c1 [Compound 97] | > 18700 | > 25 | > 50 |
| Cc1cnc2nc(-c3cc(NC(=O)c4nnc(C)o4)ccc3Cl)[nH]c2c1 [Compound 106] | 13300 | > 25 | > 50 |

| Compound | EC50 [1] [nM] | EC50 [2] [µM] | EC50 [3] [µM] |
| --- | --- | --- | --- |
| Cc1cnc2nc(-c3cc(NC(=O)c4csc(C)n4)ccc3Cl)[nH]c2c1 [Compound 107] | 510 | 5.5 | 21.5 |
| COc1ccccc1C(=O)Nc1ccc(Cl)c(-c2nc3ncc(C)cc3[nH]2)c1 [Compound 108] | 8300 | > 25 | 16.3 |
| Cc1cnc2nc(-c3cc(NC(=O)c4ccc(N5CCOCC5)cc4)ccc3Cl)[nH]c2c1 [Compound 109] | 15100 | > 24.4 | > 19.1 |
| Cc1cnc2nc(-c3cc(NC(=O)c4ccc(S(C)(=O)=O)cc4Cl)ccc3Cl)[nH]c2c1 [Compound 110] | > 13600 | > 25 | 23.8 |
| Cc1cnc2nc(-c3cc(NC(=O)C(C)(C)NC(=O)OC(C)(C)C)ccc3Cl)[nH]c2c1 [Compound 111] | > 13600 | > 25 | > 50 |
| Cc1cnc2nc(-c3cc(NC(=O)CNC(=O)OC(C)(C)C)ccc3Cl)[nH]c2c1 [Compound 112] | > 24100 | > 25 | > 50 |
| Cc1cnc2nc(-c3cc(NC(=O)c4cocn4)ccc3Cl)[nH]c2c1 [Compound 113] | 1680 | 15.3 | 26.4 |
| Cc1cnc2nc(-c3cc(NC(=O)Cc4ccc(F)cc4F)ccc3Cl)[nH]c2c1 [Compound 114] | > 11900 | > 25 | > 41.5 |
| Cc1cnc2nc(-c3cc(NC(=O)c4ccc(C(F)(F)F)cn4)ccc3Cl)[nH]c2c1 [Compound 115] | 2600 | 16.8 | 25.3 |
| Cc1cnc2nc(-c3cc(NC(=O)CN)ccc3Cl)[nH]c2c1 [Compound 116] | > 25000 | > 25 | > 50 |
| Cc1cnc2nc(-c3cc(NC(=O)C4CC(F)(F)C4)ccc3Cl)[nH]c2c1 [Compound 117] | > 13500 | > 25 | > 50 |
| Cc1cnc2nc(-c3cc(NC(=O)C4CCC4)ccc3Cl)[nH]c2c1 [Compound 118] | 3200 | 11.1 | 21.8 |
| Cc1cnc2nc(-c3cc(NC(=O)C(C)c4ccc(F)cc4)ccc3Cl)[nH]c2c1 (stereo not drawn) [Compound 119] | > 16200 | > 25 | 24.2 |
| Cc1cnc2nc(-c3cc(NC(=O)COc4ccccc4)ccc3Cl)[nH]c2c1 [Compound 120] | 10500 | > 25 | > 50 |
| Cc1cnc2nc(-c3cc(NC(=O)Cc4ccc(OC(F)(F)F)cc4)ccc3Cl)[nH]c2c1 [Compound 121] | > 17300 | > 25 | > 21.2 |
| Cc1cnc2nc(-c3cc(NC(=O)Cn4cncn4)ccc3Cl)[nH]c2c1 [Compound 122] | > 25000 | > 25 | > 50 |
| Cc1cnc2nc(-c3cc(NC(=O)C4Cc5ccccc5O4)ccc3Cl)[nH]c2c1 (stereo not drawn) [Compound 123] | 4100 | 20.3 | > 50 |
| Cc1cnc2nc(-c3cc(NC(=O)C4(C)CN(C(=O)OC(C)(C)C)C4)ccc3Cl)[nH]c2c1 [Compound 133] | > 25000 | > 25 | > 50 |
| Cc1cnc2nc(-c3cc(NC(=O)c4oc(C)nc4C)ccc3Cl)[nH]c2c1 [Compound 139] | 330 | 1.06 | 25.8 |
| Cc1cnc2nc(-c3cc(NC(=O)c4cccc(S(C)(=O)=O)c4)ccc3Cl)[nH]c2c1 [Compound 140] | 6800 | > 25 | > 50 |
| Cc1cnc2nc(-c3cc(NC(=O)C(c4ccc(Cl)cc4)C(C)C)ccc3Cl)[nH]c2c1 (stereo not drawn) [Compound 141] | 6200 | 13.9 | 9.7 |
| Cc1cnc2nc(-c3cc(NC(=O)Cc4ccc(F)c(F)c4)ccc3Cl)[nH]c2c1 [Compound 142] | > 14000 | > 25 | 20.7 |
| Cc1cnc2nc(-c3cc(NC(=O)CCO)ccc3Cl)[nH]c2c1 [Compound 143] | > 14400 | > 25 | > 50 |
| Cc1cnc2nc(-c3cc(NC(=O)Cc4ccc(Cl)cc4)ccc3Cl)[nH]c2c1 [Compound 144] | > 11300 | > 25 | 26 |
